Measured values reported in patent publication US12195490B2, “STRAD-binding agents and uses thereof” (The Regents of the University of California, priority 2020, dated 2025).
Structures can show the parent of a compound that is named as a salt.

test system: ACHN cell line; assay: drug screen of the SelleckChem kinase inhibitor library with and without 5 uM SU-329, Cell-Titer Glo after 5 days; assay type: cell-based; settings: kinase inhibitor at 200 nM with and without 5 uM SU329; ACHN cell line; 5 days; Cell-Titer Glo

Compound	log2fc
COc1cc2nccc(Oc3ccc(NC(=O)Nc4ccc(F)cc4F)c(F)c3)c2cc1OC [Ki8751]	0.1011
CC(=O)Nc1nc(C)c(-c2ccc(Cl)c(S(=O)(=O)NCCO)c2)s1 [PIK-93]	0.3162
Cc1nc(Nc2n[nH]c3c2CN(C(=O)N[C@H](CN(C)C)c2ccccc2)C3(C)C)c2sccc2n1 [PF-3758309]	0.8283
CN(C)Cc1cccc(N/C(=C2\C(=O)Nc3cc(C(N)=O)ccc32)c2ccccc2)c1 [BIX 02188]	0.2216
CC(O)C(=O)O.CC(O)C(=O)O.CN1CCN(c2ccc3nc(-c4c(N)c5c(F)cccc5[nH]c4=O)[nH]c3c2)CC1 [Dovitinib (TKI-258) Dilactic Acid]	−0.3598
NC(=O)c1cccc(-c2cc(Nc3ccc(OC(F)(F)F)cc3)ncn2)c1 [GNF-2]	0.1337
COCCOc1ccc2c(c1)ncn2-c1ccc2cccc(N3CCC(N)CC3)c2n1 [CP-673451]	0.4234
CNC(=O)c1nn(C)c2c1C(C)(C)Cc1cnc(Nc3ccc(N4CCN(C)CC4)cc3)nc1-2 [Milciclib (PHA-848125)]	0.9986
CC(C)(C)c1ccc(S(=O)(=O)/C=C/C#N)cc1 [Bay 11-7085]	0.004153
Cc1ccc(NC(=O)c2ccc(CN3CCN(C)CC3)cc2)cc1Nc1nccc(-c2cccnc2)n1 [Imatinib Mesylate (STI571), imatinib, reference compound]	0.1536
C[C@@H]1CN(CC(=O)Nc2ccc3c(c2)Cc2cccc(-c4cc(=O)cc(N5CCOCC5)o4)c2S3)C[C@H](C)O1 [KU-60019]	0.886
COc1ccc(COc2cc3oc(=O)c4cc(C(C)O)ccc4c3cc2OC)cc1 (stereo not drawn) [Palomid 529 (P529)]	0.3192
Cc1ccc(C(=O)Nc2ccc(CN3CCN(C)CC3)c(C(F)(F)F)c2)cc1C#Cc1cnc2cccnn12 [Ponatinib (AP24534)]	−0.4485
O=C1Nc2cc(Br)ccc2/C1=C1/Nc2ccccc2/C1=N\O [BIO]	−0.1795
COc1cc2c(c(OC)c1OC)-c1c(cc3c(c1OC)OCO3)CC(C)C(C)C2 (stereo not drawn) [Schisandrin B (Sch B)]	0.5674
C=CC(=O)Nc1cccc(Oc2nc(Nc3ccc(N4CCN(C)CC4)cc3)ncc2Cl)c1 [WZ3146, reference compound]	0.05459
CN(c1ncccc1CNc1nc(Nc2ccc3c(c2)CC(=O)N3)ncc1C(F)(F)F)S(C)(=O)=O [PF-562271]	0.8258
O=C(NC1CCNCC1)c1n[nH]cc1NC(=O)c1c(Cl)cccc1Cl [AT7519]	−1.085
N#Cc1c(O)c2c(-c3ccc(-c4ccccc4O)cc3)csc2[nH]c1=O [A-769662]	0.1798
O=C(c1cccc(Cl)c1F)N1CCN(Cc2cccc(Nc3nccs3)n2)CC1 [MK-8745]	−0.3779
O=c1cc(-c2cccc3c2Sc2ccccc2S3)oc(N2CCOCC2)c1 [KU-55933 (ATM Kinase Inhibitor)]	0.3053
CC(C)(C)c1cnc(CSc2cnc(NC(=O)C3CCNCC3)s2)o1 [SNS-032 (BMS-387032)]	−1.028

Compound	log2fc
Cn1c(=O)c(F)c(Nc2ccc(I)cc2F)c2c(=O)n(C[C@@H](O)CO)cnc21 [TAK-733, reference compound]	0.08618
Cc1ccc(NC(=O)c2cccc(N(C)C)c2)cc1NC(=O)c1ccc(O)cc1 [ZM 336372]	0.2177
CCOc1cc(C(=O)N2CCC(N3CCN(C)CC3)CC2)ccc1Nc1ncc2c(n1)N(C1CCCC1)c1ccccc1C(=O)N2C [ERK5-IN-1]	0.1031
Cc1cc(Nc2ncc(Cl)c(Nc3ccccc3S(=O)(=O)C(C)C)n2)c(OC(C)C)cc1C1CCNCC1 [Ceritinib (LDK378)]	0.2988
C[S+]([O-])c1ccc(-c2nc(-c3ccc(F)cc3)c(-c3ccncc3)[nH]2)cc1 (stereo not drawn) [SB203580]	−0.09424
CN1CCN(S(=O)(=O)c2ccc(-c3cnc(N)c(C(=O)Nc4cccnc4)n3)cc2)CC1 [AZD2858]	0.1991
KX2-391	0.3892
Cc1cc(CS(=O)(=O)c2ccccc2)cc(OCc2ccc(CN3CCC[C@@H]3CO)cc2)c1 [PF-543]	0.8598
O=C(c1ccc(/C=C/c2n[nH]c3ccccc23)cc1)N1CCNCC1 [KW-2449]	−0.0564
CS(=O)(=O)c1cccc(CNc2nc(Nc3ccc4c(c3)CCC(=O)N4)ncc2C(F)(F)F)c1 [PF-573228]	0.4325
O=C(c1ccc(Nc2nccc(-c3cc4ccccc4s3)n2)cc1)N1CCC(N2CCCC2)CC1 [IKK-16 (IKK Inhibitor VII)]	−0.1183
C=CC(=O)N1CCC[C@@H](n2nc(-c3ccc(Oc4ccccc4)cc3)c3c(N)ncnc32)C1 [Ibrutinib (PCI-32765)]	1.289
Cn1ncc(Cl)c1-c1cc(C(=O)N[C@H](CN)Cc2ccc(F)c(F)c2)oc1Cl [Uprosertib (GSK2141795)]	−1.387
C[C@H](NC(=O)/C(C#N)=C/c1cccc(Br)n1)c1ccccc1 [WP1066]	−0.4551
O=C(Nc1ccc(-c2ccnc(Nc3ccc(N4CCOCC4)cc3)n2)cc1)C1CCCN1 (stereo not drawn) [XL019]	−0.1669
C[C@@H]1CCN(C(=O)CC#N)C[C@@H]1N(C)c1ncnc2[nH]ccc12 [Tofacitinib (CP-690550, Tasocitinib)]	0.6421
CN1CCN(c2nc(C3=C(c4c[nH]c5ccccc45)C(=O)NC3=O)c3ccccc3n2)CC1 [Sotrastaurin]	0.054
N#C/C(=C(/N)Sc1ccc(N)cc1)c1ccccc1C(F)(F)F [SL-327]	−0.2882
COc1ccc(-c2ccc3ncc4c(c3c2)n(-c2ccc(N3CCNCC3)c(C(F)(F)F)c2)c(=O)n4C)cn1 [BGT226 (NVP-BGT226)]	−0.4638
O=C(NCc1ccccc1)c1csc(Nc2ccncn2)n1 [Thiazovivin]	−0.4963
Cc1c(CN2CCN(C(=O)[C@H](C)O)CC2)sc2c(N3CCOCC3)nc(-c3cnc(N)nc3)nc12 [Apitolisib (GDC-0980, RG7422)]	−0.658
CN(c1ncccc1CNc1nc(Nc2ccc3c(c2)CC(=O)N3)ncc1C(F)(F)F)S(C)(=O)=O [PF-00562271]	0.8274

Compound	log2fc
COc1cc2nccc(Oc3ccc(NC(=O)C4(C(=O)Nc5ccc(F)cc5)CC4)cc3)c2cc1OC.O=C(O)C[C@H](O)C(=O)O [Cabozantinib malate (XL184)]	0.5713
C[C@@H](N)[C@H]1CC[C@H](C(=O)Nc2ccncc2)CC1.Cl.Cl [Y-27632 2HCl]	−0.01003
OCCn1cc(-c2ccc3c(c2)CC/C3=N\O)c(-c2ccncc2)n1 [GDC-0879]	0.3592
O=C(O)c1ccc(-c2c[nH]c3ncc(-c4ccccc4)cc23)cc1C1CCCC1 [GSK650394]	0.3205
CNC(=O)c1cc(Oc2ccc(NC(=O)Nc3cc(C(C)(C)C)nn3-c3ccc4ncccc4c3)c(F)c2)ccn1 [Rebastinib (DCC-2036)]	0.007715
FC(F)(F)c1ccc(/C=C/c2nc(COc3ccc(CCCCn4ccnn4)cc3)co2)cc1 [Mubritinib (TAK 165)]	0.225
CC(C)(C)NS(=O)(=O)c1cncc(-c2cc(F)c3nc(N)nn3c2)c1 [CZC24832]	0.2139
COc1ccc(-c2cc3c(C)nc(N)nc3n([C@H]3CC[C@H](OCCO)CC3)c2=O)cn1 [PF-04691502]	−0.5101
O=c1cc(N2CCOCC2)oc2c(-c3ccccc3)cccc12 [LY294002]	0.5337
CNC(=O)c1c(F)cccc1Nc1nc(Nc2cc3c(cc2OC)CCN3C(=O)CN(C)C)nc2[nH]ccc12 [GSK1838705A]	−0.03081
Cc1[nH]c(/C=C2\C(=O)Nc3ccc(S(=O)(=O)Cc4c(Cl)cccc4Cl)cc32)c(C)c1C(=O)N1CCC[C@@H]1CN1CCCC1 [PHA-665752]	0.1781
CNCc1ccc(-c2cc(-c3nc(-c4ccc(S(=O)(=O)C(C)C)cc4)cnc3N)on2)cc1 [VE-822]	0.3083
CCN(CC)CCCCNc1ncc2cc(-c3cc(OC)cc(OC)c3)c(NC(=O)NC(C)(C)C)nc2n1 [PD173074]	0.1032
C#Cc1cccc(Nc2ncnc3cc(OCCOC)c(OCCO)cc23)c1.Cl [OSI-420, desmethyl erlotinib, reference compound]	−0.04846
CNC(=O)c1cc(Oc2ccc(NC(=O)Nc3ccc(Cl)c(C(F)(F)F)c3)c(F)c2)ccn1 [Regorafenib (BAY 73-4506)]	0.8333
C=CC(=O)Nc1cccc(Nc2nc(Nc3ccc(Oc4ccnc(C(=O)NC)c4)cc3)ncc2F)c1 [CNX-774]	−0.2519
Cc1cc(C(=O)NOCCO)c(Nc2ccc(I)cc2F)n(C)c1=O [AZD8330]	0.5935
NC(=O)c1ncn([C@@H]2O[C@H](CO)[C@@H](O)[C@H]2O)c1N [AICAR (Acadesine)]	0.7164
Cc1cc([C@@H](C)Nc2ccccc2C(=O)O)c2nc(N3CCOCC3)cc(=O)n2c1 [AZD6482]	−0.1098
C=CC(=O)Nc1cccc(Nc2nc(Nc3ccc(OCCOC)cc3)ncc2F)c1 [CC-292 (AVL-292)]	−0.2142
COc1ccc2c(c1)c(C1=C(c3c[nH]c4ccccc34)C(=O)NC1=O)cn2CCCN(C)C [Go 6983]	0.08992
O=C1NCCc2[nH]c(-c3ccncc3)cc21 [PHA-767491]	−0.9629
